The values that follow come from patent publication US8222273B2, “Polymorphic form of a [1,2,4]triazole[4,3-A] pyridine derivative inflammatory diseases” (Pfizer Limited, priority 2008, dated 2012).

Holding throughout (assay type): physicochemical
Data set [1] can be described thus: Low energy screen (slurry of form B in solvents, PXRD analysis). As to conditions: slurried for 2 weeks in various solvents (incl. dimethylacetamide, N-methyl-Pyrrolidine, pyridine) at 4° C., room temperature (~22° C.) and 40° C.; analysis after 2 weeks and 4 months. How it is done:
A low energy screen was carried using N-[3-tert-butyl-1-(3-chloro-4-hydroxyphenyl)-1H-pyrazol-5-yl]-N′-{2-[(3-{2-[(2-hydroxyethyl)sulfanyl]phenyl}[1,2,4]triazolo[4,3-a]pyridin-6-yl)sulfanyl]benzyl}urea form B to investigate whether it is the lowest energy form of the compound. Samples of form B were slurried for 2 weeks in various solvents at 4° C., room temperature (˜22° C.) and 40° C. Analysis of wet and dried slurries was carried out at after 2 weeks and 4 months using PXRD.

The nature of data set [2]: Hygroscopicity.
Data set [3] is described as follows: Hydrate screen (slurry of form B in aqueous pyridine). The following applies: slurried 2 weeks at 4° C., room temperature (~22° C.) and 40° C. in aqueous pyridine containing 50%, 75% and 90% water. How it is done:
A hydrate screen was conducted by slurrying samples of form B for 2 weeks at 4° C., room temperature (˜22° C.) and 40° C. in aqueous pyridine. The three solvent systems selected contained 50%, 75% and 90% water.

The nature of data set [4]: Micronisation by jet milling.
A short description of data set [5]: Stability of blend with lactose monohydrate on storage. As to conditions: stored under aggressive conditions of heat and humidity.

Take `CC(C)(C)c1cc(NC(=O)NCc2ccccc2Sc2ccc3nnc(-c4ccccc4SCCO)n3c2)n(-c2ccc(O)c(Cl)c2)n1` [form B, N-[3-tert-butyl-1-(3-chloro-4-hydroxyphenyl)-1H-pyrazol-5-yl]-N′-{2-[(3-{2-[(2-hydroxyethyl)sulfanyl]phenyl}[1,2,4]triazolo[4,3-a]pyridin-6-yl)sulfanyl]benzyl}urea]: the “crystalline form after slurrying (PXRD of wet and dried slurries)” value in data set [1] is recorded as “remained as Form B”. Also, the hygroscopicity entry in data set [2] was “essentially non-hygroscopic”. Also, in data set [3], the “change in crystalline form” value is reported as “No change in crystalline form” and the hydrated forms observed entry was “No hydrated forms were observed”. Also, in data set [4], the “change in crystalline form on micronisation” value is on record as “without inducing any change in crystalline form”. In addition, the “stability when blended with lactose monohydrate” value in data set [5] is on record as “good stability”.
